ChEMBL document CHEMBL5223082, “Alkyl-Aryl-Vancomycins: Multimodal Glycopeptides with Weak Dependence on the Bacterial Metabolic State” (J Med Chem, 2021)
Calls of active or inactive are those of the source. No cut-off for these calls is given here.

Legend:
[1] = molecular target: T1, Septum site-determining protein MinD (Bacillus subtilis (strain 168)) (UniProt Q01464); assay: Delocalization of GFP tagged-MinD in Bacillus subtilis 168 at PEC incubated for 15 mins by fluorescence microscopy
T1 sequence (whole entry): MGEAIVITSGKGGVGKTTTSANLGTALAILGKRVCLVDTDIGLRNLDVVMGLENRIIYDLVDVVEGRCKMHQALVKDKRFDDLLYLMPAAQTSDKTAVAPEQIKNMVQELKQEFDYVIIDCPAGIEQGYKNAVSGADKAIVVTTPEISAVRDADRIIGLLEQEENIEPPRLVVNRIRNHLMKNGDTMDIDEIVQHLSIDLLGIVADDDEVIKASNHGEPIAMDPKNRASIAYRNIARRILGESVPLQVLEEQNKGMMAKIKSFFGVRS

Enterococcus [2] = assay: Potency index, ratio of Vancomycin MIC to test compound MIC for antibacterial activity against Vancomycin-resistant Enterococci ATCC 51559; type: functional
Staphylococcus aureus [3] = assay: Antibacterial activity against stationary phase of Methicillin-resistant Staphylococcus aureus ATCC 33591 assessed as log reduction in bacterial colonies at 22 uM incubated for 24 hrs in broth solution followed by incubation on agar plate for 48 hrs by spot plating method; type: functional; settings: time 72 hrs
Staphylococcus aureus [4] = assay: Antibacterial activity against Vancomycin-resistant Staphylococcus aureus 4 assessed as inhibition of bacterial growth incubated for 18 to 24 hrs by CLSI microbroth dilution method; type: functional; settings: time 18-24 hrs
Staphylococcus aureus [5] = assay: Antibacterial activity against Methicillin-resistant Staphylococcus aureus ATCC 33591 persister cells assessed as log reduction in bacterial colonies at 4.5 uM incubated for 24 hrs in broth solution followed by incubation on agar plate for 48 hrs by spot plating method; type: functional; settings: time 72 hrs
Enterococcus [6] = assay: Antibacterial activity against Vancomycin-resistant Enterococci ATCC 51559 assessed as inhibition of bacterial growth incubated for 18 to 24 hrs by CLSI microbroth dilution method; type: functional; settings: time 18-24 hrs
[7] = Toxicity in BALB/c mouse assessed as adverse effects at 55.5 mg/kg, ip measured for 4 hrs; type: organism-based; settings: in vivo
Staphylococcus aureus [8] = assay: Antibacterial activity against Methicillin-resistant Staphylococcus aureus ATCC 33591 assessed as inhibition of bacterial growth preincubated compound with N,N'-diacetyl-L-Lys-D-Ala-D-Ala for 10 mins followed by incubation with bacterial culture for 18 to 24 hrs by CLSI microbroth dilution method; type: functional; settings: time 1090-1450 min
Staphylococcus aureus [9] = assay: Antibacterial activity against Methicillin-resistant Staphylococcus aureus ATCC 33591 persister cells assessed as log reduction in bacterial colonies at 9 uM incubated for 24 hrs in broth solution followed by incubation on agar plate for 48 hrs by spot plating method; type: functional; settings: time 72 hrs
Staphylococcus aureus [10] = assay: Potency index, ratio of Vancomycin MIC to test compound MIC for antibacterial activity against Vancomycin-resistant Staphylococcus aureus 4; type: functional
Staphylococcus aureus [11] = assay: Bactericidal activity against methicillin-resistant Staphylococcus aureus ATCC 33591 assessed as log reduction in bacterial colonies at 2XMIC incubated for 6 hrs in broth solution followed by culturing for 24 hrs on agar plate by spot plating method; type: functional; settings: time 30 hrs
[12] = Toxicity in BALB/c mouse assessed as animal's survival rate at 55.5 mg/kg, iv measured for 14 days; type: organism-based; settings: in vivo, time 14 day
Staphylococcus aureus [13] = assay: Antibacterial activity against Methicillin-resistant Staphylococcus aureus ATCC 33591 assessed as time duration of post-antibiotic effect for suppression of bacterial growth at 10XMIC incubated for 1 hr in broth solution followed by washing for drug removal and subsequent plating on nutrient agar plate; type: functional
Staphylococcus aureus [14] = assay: Antibacterial activity against stationary phase of Methicillin-resistant Staphylococcus aureus ATCC 33591 assessed as log reduction in bacterial colonies at 9 uM incubated for 12 hrs in broth solution followed by incubation on agar plate for 48 hrs by spot plating method; type: functional; settings: time 60 hrs
Enterococcus [15] = assay: Potency index, ratio of Vancomycin MIC to test compound MIC for antibacterial activity against Vancomycin-resistant Enterococci ATCC 51575; type: functional
[16] = Induction of hemolysis in human erythrocytes at 250 uM incubated for 1 hr by microtiter plater reader analysis; type: toxicity, cell-based, Erythrocyte; settings: read-out: Activity
Staphylococcus aureus [17] = assay: Antibacterial activity against Methicillin-resistant Staphylococcus aureus ATCC 33591 assessed as inhibition of bacterial growth incubated for 18 to 24 hrs in presence of 50% human liver homogenate by CLSI microbroth dilution method; type: functional; settings: ATCC 33591, Liver, time 18-24 hrs
Enterococcus [18] = assay: Bactericidal activity against Vancomycin-resistant Enterococci assessed as log reduction in bacterial colonies at MIC incubated for 24 hrs in broth solution followed by culturing for 24 hrs on agar plate by spot plating method; type: functional; settings: time 48 hrs
[19] = molecular target: T1, Septum site-determining protein MinD (Bacillus subtilis (strain 168)); assay: Delocalization of GFP tagged-MinD in Bacillus subtilis 168 at MIC incubated for 15 mins by fluorescence microscopy
Staphylococcus aureus [20] = assay: Antibacterial activity against stationary phase of Methicillin-resistant Staphylococcus aureus ATCC 33591 assessed as log reduction in bacterial colonies at 4.5 uM incubated for 24 hrs in broth solution followed by incubation on agar plate for 48 hrs by spot plating method; type: functional; settings: time 72 hrs
Enterococcus [21] = assay: Antibacterial activity against Vancomycin-resistant Enterococci NR30909 assessed as inhibition of bacterial growth incubated for 18 to 24 hrs by CLSI microbroth dilution method; type: functional; settings: time 18-24 hrs
Staphylococcus aureus [22] = assay: Antibacterial activity against Methicillin-resistant Staphylococcus aureus ATCC 33591 persister cells assessed as log reduction in bacterial colonies at 9 uM incubated for 2 hrs in broth solution followed by incubation on agar plate for 48 hrs by spot plating method; type: functional; settings: time 50 hrs
Enterococcus [23] = assay: Antibacterial activity against Vancomycin-resistant Enterococci NR30903 assessed as inhibition of bacterial growth incubated for 18 to 24 hrs by CLSI microbroth dilution method; type: functional; settings: time 18-24 hrs
Bacillus subtilis [24] = assay: Inhibition of cell wall biosynthesis in Bacillus subtilis 168 assessed as bubble-like formation on bacterial cell surface at PEC incubated for 15 mins by light microscopic analysis; type: functional, organism-based
[25] = Cytotoxicity against human HEK293 cells assessed as cell viability at 0.5 to 30 uM incubated for 24 hrs by AlamarBlue assay; type: toxicity, cell-based; settings: dose 0.5-30 µM, read-out: Activity
[26] = Renal toxicity in mouse assessed as blood urea nitrogen level at 12 mg/kg, ip measured after 48 hrs; type: organism-based; settings: in vivo
[27] = Hepatotoxicity in mouse assessed as plasma ALT level at 12 mg/kg, ip measured after 48 hrs; type: toxicity, organism-based; settings: in vivo
Cell membrane [28] = assay: Induction of cytoplasmic membrane permeabilization in Vancomycin-resistant Enterococci assessed as increase in fluorescence intensity at 10 uM measured for 30 to 40 mins by Propidium iodide staining based fluorescence analysis; type: subcellular; settings: Enterococcus, time 30-40 min
Staphylococcus aureus [29] = assay: Potency index, ratio of Vancomycin MIC to test compound MIC for antibacterial activity against Vancomycin-resistant Staphylococcus aureus 12; type: functional
[30] = Toxicity in BALB/c mouse assessed as animal's survival rate at 55.5 mg/kg, ip measured for 14 days; type: organism-based; settings: in vivo, time 14 day
Cell membrane [31] = assay: Induction of cytoplasmic membrane depolarization in Vancomycin-resistant Enterococci assessed as increase in fluorescence intensity at 10 uM measured for 35 to 40 mins by DiSC3(5) dye based fluorescence analysis; type: subcellular; settings: Enterococcus, time 35-40 min
Bacillus subtilis [32] = assay: Antibacterial activity against Bacillus subtilis 168 assessed as inhibition of bacterial growth incubated for 18 hrs by turbidity based analysis; type: functional

SMILES: CCCCCCCCCCNC(=O)C[N+](C)(C)CCCNC(=O)c1ccc(CN[C@@]2(C)C[C@H](O[C@H]3[C@H](Oc4c5cc6cc4Oc4ccc(cc4Cl)[C@@H](O)[C@@H](NC(=O)[C@@H](CC(C)C)NC)C(=O)N[C@@H](CC(N)=O)C(=O)N[C@H]6C(=O)N[C@H]4C(=O)N[C@H](C(=O)N[C@H](C(=O)O)c6cc(O)cc(O)c6-c6cc4ccc6O)[C@H](O)c4ccc(c(Cl)c4)O5)O[C@H](CO)[C@@H](O)[C@@H]3O)O[C@@H](C)[C@H]2O)cc1
- Activity [1]: inactive
- Ratio (Enterococcus [2]): 1384
- Activity (Staphylococcus aureus [3]): 7 log10CFU/ml
- MIC (Staphylococcus aureus [4]): 0.45 µM
- Activity (Staphylococcus aureus [5]): 3.3 log10CFU/ml
- MIC (Enterococcus [6]): 3.6 µM
- Activity [7]: Non-Toxic
- MIC (Staphylococcus aureus [8]): 0.9 µM
- Activity (Staphylococcus aureus [9]): 6 log10CFU/ml
- Ratio (Staphylococcus aureus [10]): 1384
- Activity (Staphylococcus aureus [11]): 4.3 log10CFU/ml
- survival at 336 h [12]: 100%
- Time (Staphylococcus aureus [13]): 23 h
- Activity (Staphylococcus aureus [14]): 1.9 log10CFU/ml
- Ratio (Enterococcus [15]): 1384
- hemolysis at 1 h, 250 µM [16]: 1%
- MIC (Staphylococcus aureus [17]): 0.9 µM
- Activity (Enterococcus [18]): 0.7 log10CFU/ml
- Activity [19]: 25%
- Activity (Staphylococcus aureus [20]): 2 log10CFU/ml
- MIC (Enterococcus [21]): 0.9 µM
- Activity (Staphylococcus aureus [22]): 2 log10CFU/ml
- MIC (Enterococcus [23]): 0.45 µM
- inhibition (Bacillus subtilis [24]): Active
- viability at 24 h, up to 30 µM [25]: 100%
- Activity [26]: 20.7 mg/dL
- Activity [27]: 62.25 U/L
- Activity (Cell membrane [28]): Active
- Ratio (Staphylococcus aureus [29]): 1384
- survival at 336 h [30]: 100%
- Activity (Cell membrane [31]): Active
- MIC (Bacillus subtilis [32]): 0.45 µM
